Test results published in patent US20150105252A1, “SUBSTITUTED PYRAZOLES AS HERBICIDES” (E I DU PONT DE NEMOURS AND COMPANY, priority 2013, published 2015).

Experiments:
foxtail, giant = experiment: Test A preemergence; format: in vivo, Setaria faberii
How it was run: (§1)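 After sowing in a sand–loam mix, pots received compound preemergence by directed soil spray, or postemergence once plants reached the one- to two-leaf stage (2–10 cm). Formulation contained surfactant in a non-phytotoxic solvent. Injury was scored visually after ~10 greenhouse days, 0–100 scale.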

velvetleaf [1] = experiment: Test A preemergence; format: in vivo, Abutilon theophrasti; settings: for Velvetleaf plant response rating: 0 to 100 scale
How it was run: as §1

corn = experiment: Test A preemergence; format: in vivo, Zea mays
How it was run: as §1

pigweed = experiment: Test A postemergence; format: in vivo, Amaranthus retroflexus
How it was run: as §1

velvetleaf [2] = experiment: Test A postemergence; format: in vivo, Abutilon theophrasti
How it was run: as §1

rice = experiment: Test B flood; format: in vivo, Oryza sativa; settings: 250 g ai/ha, visual rating on 0 to 100 scale (0 no effect, 100 complete control), 13 to 15 days
How it was run: (§2)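 At two leaves, seedlings received the test compound via the paddy water, pots having been flooded 3 cm over the soil surface and kept so. Greenhouse-held for 13 to 15 days, then judged by eye against controls on a scale running 0 (no effect) to 100 (complete control).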

sedge, umbrella = experiment: Test B flood; format: in vivo, Cyperus difformis; settings: 250 g ai/ha, visual rating on 0 to 100 scale (0 no effect, 100 complete control), 13 to 15 days
How it was run: as §2

wheat [3] = experiment: Test C preemergence; format: in vivo, Triticum aestivum; settings: for Wheat plant response rating / Plant response rating, Wheat: preemergence; for Plant response rating, Wheat: scale 0 to 100, 0 = no effect, 100 = complete control
How it was run: (§3)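 Scores of 0 (no effect) to 100 (complete control) were assigned by eye after 13–15 days, comparing treated pots with controls. Soil-applied (preemergence) treatments went onto seeds in loam and sand; foliar (postemergence) treatments onto 1- to 4-leaf plants in peat medium.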

crabgrass, large = experiment: Test C preemergence; format: in vivo, Digitaria sanguinalis; settings: for Plant response rating (scale of 0 to 100), Crabgrass, Large: Preemergence; for Crabgrass, Large plant response rating / Plant response rating, Crabgrass, Large: preemergence; for Plant response rating, Crabgrass, Large: scale 0 to 100, 0 = no effect, 100 = complete control
How it was run: as §3

velvetleaf [4] = experiment: Test C preemergence; format: in vivo, Abutilon theophrasti; settings: for Plant response rating (scale of 0 to 100), Velvetleaf: Preemergence; for Velvetleaf plant response rating / Plant response rating, Velvetleaf: preemergence; for Plant response rating, Velvetleaf: scale 0 to 100, 0 = no effect, 100 = complete control
How it was run: as §3

wheat [5] = experiment: Test C postemergence; format: in vivo, Triticum aestivum; settings: for Wheat plant response rating / Plant response rating, Wheat: postemergence; for Wheat plant response rating: 62 g ai/ha, scale 0 to 100
How it was run: as §3

johnsongrass = experiment: Test C postemergence; format: in vivo, Sorghum halepense; settings: for Johnsongrass plant response rating: scale 0 to 100
How it was run: as §3

lambsquarters = experiment: Test C postemergence; format: in vivo, Chenopodium album; settings: for Lambsquarters plant response rating: scale 0 to 100
How it was run: as §3

velvetleaf [6] = experiment: Test C postemergence; format: in vivo, Abutilon theophrasti; settings: for Velvetleaf plant response rating / Plant response rating, Velvetleaf: postemergence; for Velvetleaf plant response rating: 62 g ai/ha, scale 0 to 100
How it was run: as §3

waterhemp = experiment: Test C postemergence; format: in vivo, Amaranthus rudis
Description: Seeds of plant species selected from blackgrass (Alopecurus myosuroides), ryegrass, Italian (Italian ryegrass, Lolium multiflorum), wheat (winter wheat, Triticum aestivum), galium (catchweed bedstraw, Galium aparine), corn (Zea mays), crabgrass, large (large crabgrass, Digitaria sanguinalis), foxtail, giant (giant foxtail, Setaria faberii), johnsongrass (Sorghum halepense), lambsquarters (Chenopodium album), morningglory (Ipomoea coccinea), nutsedge, yellow (yellow nutsedge, Cyperus esculentus), pigweed (redroot pigweed, Amaranthus retroflexus), ragweed (common ragweed, Ambrosia elation), soybean (Glycine max), barnyardgrass (Echinochloa crus-galli), oilseed rape (Brassica napus), waterhemp (common waterhemp, Amaranthus rudis), oat, wild (wild oat, Avena fatua), kochia (Kochia scoparia), Surinam grass (Brachiaria decumbens), foxtail, green (green foxtail, Setaria viridis), goosegrass (Eleusine indica), bromegrass, downy (downy bromegrass, Bromus tectorum), nightshade (eastern black nightshade, Solanum ptycanthum), cocklebur (common cocklebur, Xanthium strumarium), cupgrass, woolly (woolly cupgrass, Eriochloa villosa), bermudagrass (Cynodon dactylon), sunflower, (common oilseed sunflower, Helianthus annuus), Russian thistle (Salsola kali), and velvetleaf (Abutilon theophrasti) were planted into a blend of loam soil and sand and treated preemergence with test chemicals formulated in a non-phytotoxic solvent mixture which included a surfactant.
At the same time, plants selected from these crop and weed species and also chickweed (common chickweed, Stellaria media), canarygrass (littleseed canarygrass, Phalaris minor), and deadnettle (henbit deadnettle, Lamium amplexicaule), were planted in pots containing Redi-Earth® planting medium (Scotts Company, 14111 Scottslawn Road, Marysville, Ohio 43041) comprising spaghnum peat moss, vermiculite, wetting agent and starter nutrients and treated with postemergence applications of test chemicals formulated in the same manner. Plants ranged in height from 2 to 18 cm (1- to 4-leaf stage) for postemergence treatments. Treated plants and controls were maintained in a greenhouse for 13 to 15 days, after which time all species were compared to controls and visually evaluated. Plant response ratings, summarized in Table C, are based on a scale of 0 to 100 where 0 is no effect and 100 is complete control. A dash (-) response means no test result.

[7] = Preemergence, 1000 g ai/ha, 0 to 100 scale, 0 no effect, 100 complete control
[8] = Postemergence, 1000 g ai/ha, visual rating after approx. 10 days, 0 to 100 scale (0 no effect, 100 complete control)
[9] = 31 g ai/ha, scale 0 to 100 (0 no effect, 100 complete control), 13 to 15 days
[10] = 125 g ai/ha, scale 0 to 100, 0 is no effect, 100 is complete control
[11] = 250 g ai/ha, scale 0 to 100 (0 no effect, 100 complete control)
[12] = 125 g ai/ha, scale 0 to 100, 0 no effect, 100 complete control
[13] = postemergence, 250 g ai/ha, scale 0 to 100 (0 no effect, 100 complete control)
[14] = postemergence, 125 g ai/ha, scale 0 to 100, 0 no effect, 100 complete control
[15] = Preemergence, 500 g ai/ha, 0 to 100 scale, 0 no effect, 100 complete control
[16] = preemergence, 125 g ai/ha, visual injury, 0 to 100 scale, approx. 10 days
[17] = Postemergence, 500 g ai/ha, visual rating after approx. 10 days, 0 to 100 scale (0 no effect, 100 complete control)
[18] = postemergence, 125 g ai/ha, about 10 days, visual rating on 0 to 100 scale (0 no effect, 100 complete control)
[19] = Postemergence, 31 g ai/ha, visually evaluated after 13 to 15 days
[20] = preemergence, 125 g ai/ha, visual injury approx. 10 days after treatment
[21] = preemergence, 500 g ai/ha, visual injury after approx. 10 days, 0 to 100 scale (0 no effect, 100 complete control)
[22] = Postemergence, 125 g ai/ha, 0 to 100 scale, 0 no effect, 100 complete control
[23] = Postemergence, 500 g ai/ha, 0 to 100 scale (0 no effect, 100 complete control)
[24] = 31 g ai/ha, visual rating, scale 0 to 100 (0 no effect, 100 complete control), 13 to 15 days
[25] = 62 g ai/ha, scale 0 to 100 (0 no effect, 100 complete control), 13 to 15 days
[26] = 250 g ai/ha, scale 0 to 100, 0 is no effect, 100 is complete control

Cc1cc(C(=O)NCC(F)(F)F)nn1Cc1ccnc(C(F)(F)F)c1 [Compound 74]
Foxtail, Giant plant response rating (foxtail, giant; [7]): 100
Velvetleaf plant response rating (velvetleaf [1]; Preemergence, 1000 g ai/ha, 0 no effect, 100 complete control): 100
Corn plant response rating (corn; [7]): 90
Pigweed plant response rating (pigweed; [8]): 100
Velvetleaf plant response rating (velvetleaf [2]; [8]): 100
Plant response rating, Rice (rice): 0
Plant response rating, Sedge, Umbrella (sedge, umbrella): 65
Plant response rating (scale of 0 to 100), Wheat (wheat [3]; Preemergence, 250 g ai/ha): 90
Wheat plant response rating (wheat [3]; [9]): 0
Plant response rating, Wheat (wheat [3]; 62 g ai/ha, 13 to 15 days): 5
Wheat plant response rating (wheat [3]; [10]): 15
Plant response rating (scale of 0 to 100), Crabgrass, Large (crabgrass, large; 250 g ai/ha): 100
Crabgrass, Large plant response rating (crabgrass, large; [9]): 98
Plant response rating, Crabgrass, Large (crabgrass, large; 62 g ai/ha, 13 to 15 days): 100
Crabgrass, Large plant response rating (crabgrass, large; [10]): 100
Plant response rating (scale of 0 to 100), Velvetleaf (velvetleaf [4]; 250 g ai/ha): 100
Velvetleaf plant response rating (velvetleaf [4]; [9]): 45
Plant response rating, Velvetleaf (velvetleaf [4]; 62 g ai/ha, 13 to 15 days): 65
Velvetleaf plant response rating (velvetleaf [4]; [10]): 100
Wheat plant response rating (wheat [5]): 0
Plant response rating, Wheat (wheat [5]; [11]): 5
Plant response rating, Wheat (wheat [5]; [12]): 0
Johnsongrass plant response rating (johnsongrass; Postemergence, 31 g ai/ha): 0
Johnsongrass plant response rating (johnsongrass; postemergence, 62 g ai/ha): 0
Plant response rating, Johnsongrass (johnsongrass; [13]): 15
Plant response rating, Johnsongrass (johnsongrass; [14]): 5
Lambsquarters plant response rating (lambsquarters; Postemergence, 31 g ai/ha): 20
Lambsquarters plant response rating (lambsquarters; postemergence, 62 g ai/ha): 35
Plant response rating, Lambsquarters (lambsquarters; [13]): 90
Plant response rating, Lambsquarters (lambsquarters; [14]): 80
Velvetleaf plant response rating (velvetleaf [6]): 30
Plant response rating, Velvetleaf (velvetleaf [6]; [11]): 40
Plant response rating, Velvetleaf (velvetleaf [6]; [12]): 30

CCc1cc(C(=O)NC2CC2)nn1Cc1ccnc(C(F)(F)F)c1 [Compound 76]
Foxtail, Giant plant response rating (foxtail, giant; [15]): 100
Foxtail, Giant plant response rating (foxtail, giant; [16]): 80
Velvetleaf plant response rating (velvetleaf [1]; Preemergence, 500 g ai/ha, 0 no effect, 100 complete control): 60
Velvetleaf plant response rating (velvetleaf [1]; preemergence, 125 g ai/ha, visual injury, approx. 10 days): 20
Corn plant response rating (corn; [15]): 80
Corn plant response rating (corn; [16]): 50
Pigweed plant response rating (pigweed; [17]): 100
Pigweed plant response rating (pigweed; [18]): 100
Velvetleaf plant response rating (velvetleaf [2]; [17]): 90
Velvetleaf plant response rating (velvetleaf [2]; [18]): 30
Plant response rating, Rice (rice): 20
Plant response rating, Sedge, Umbrella (sedge, umbrella): 80
Plant response rating (scale of 0 to 100), Crabgrass, Large (crabgrass, large; 250 g ai/ha): 100
Crabgrass, Large plant response rating (crabgrass, large; [9]): 100
Plant response rating, Crabgrass, Large (crabgrass, large; 62 g ai/ha, 13 to 15 days): 100
Crabgrass, Large plant response rating (crabgrass, large; [10]): 100
Plant response rating (scale of 0 to 100), Velvetleaf (velvetleaf [4]; 250 g ai/ha): 100
Velvetleaf plant response rating (velvetleaf [4]; [9]): 75
Plant response rating, Velvetleaf (velvetleaf [4]; 62 g ai/ha, 13 to 15 days): 85
Velvetleaf plant response rating (velvetleaf [4]; [10]): 100
Plant response rating (scale of 0 to 100 where 0 is no effect and 100 is complete control), Wheat (wheat [5]; [19]): 0
Wheat plant response rating (wheat [5]): 5
Plant response rating, Wheat (wheat [5]; [11]): 5
Plant response rating, Wheat (wheat [5]; [12]): 5
Plant response rating (scale of 0 to 100 where 0 is no effect and 100 is complete control), Johnsongrass (johnsongrass; [19]): 0
Johnsongrass plant response rating (johnsongrass; postemergence, 62 g ai/ha): 0
Plant response rating, Johnsongrass (johnsongrass; [13]): 25
Plant response rating, Johnsongrass (johnsongrass; [14]): 25
Plant response rating (scale of 0 to 100 where 0 is no effect and 100 is complete control), Lambsquarters (lambsquarters; [19]): 75
Lambsquarters plant response rating (lambsquarters; postemergence, 62 g ai/ha): 75
Plant response rating, Lambsquarters (lambsquarters; [13]): 85
Plant response rating, Lambsquarters (lambsquarters; [14]): 85
Plant response rating (scale of 0 to 100 where 0 is no effect and 100 is complete control), Waterhemp (waterhemp; [19]): 60
Waterhemp plant response rating (waterhemp; postemergence, 62 g ai/ha, scale 0 to 100): 70
Plant response rating, Waterhemp (waterhemp; [13]): 100
Plant response rating, Waterhemp (waterhemp; [14]): 75
Plant response rating (scale of 0 to 100 where 0 is no effect and 100 is complete control), Velvetleaf (velvetleaf [6]; [19]): 15
Velvetleaf plant response rating (velvetleaf [6]): 40
Plant response rating, Velvetleaf (velvetleaf [6]; [11]): 80
Plant response rating, Velvetleaf (velvetleaf [6]; [12]): 60

CCCc1cc(C(=O)NOC(C)C)nn1Cc1cc(C(F)(F)F)nn1C [Compound 203]
Foxtail, Giant plant response rating (0 to 100 scale) (foxtail, giant; [20]): 80
Foxtail, Giant plant response rating (foxtail, giant; [21]): 100
Velvetleaf plant response rating (0 to 100 scale) (velvetleaf [1]; [20]): 30
Corn plant response rating (0 to 100 scale) (corn; [20]): 20
Corn plant response rating (corn; [21]): 80
Pigweed plant response rating (pigweed; [22]): 90
Pigweed plant response rating (pigweed; [23]): 100
Velvetleaf plant response rating (velvetleaf [2]; [22]): 30
Velvetleaf plant response rating (velvetleaf [2]; [23]): 90
Plant response rating, Rice (rice): 0
Plant response rating, Sedge, Umbrella (sedge, umbrella): 95
Wheat plant response rating (wheat [3]; [24]): 40
Wheat plant response rating (wheat [3]; [25]): 75
Plant response rating, Wheat (wheat [3]; 125 g ai/ha, 13 to 15 days): 90
Wheat plant response rating (wheat [3]; [26]): 90
Crabgrass, Large plant response rating (crabgrass, large; [24]): 80
Crabgrass, Large plant response rating (crabgrass, large; [25]): 95
Plant response rating, Crabgrass, Large (crabgrass, large; 125 g ai/ha, 13 to 15 days): 100
Crabgrass, Large plant response rating (crabgrass, large; [26]): 100
Velvetleaf plant response rating (velvetleaf [4]; [24]): 30
Velvetleaf plant response rating (velvetleaf [4]; [25]): 98
Plant response rating, Velvetleaf (velvetleaf [4]; 125 g ai/ha, 13 to 15 days): 100
Velvetleaf plant response rating (velvetleaf [4]; [26]): 100
